Source: patent publication US6479527B1, “Bicyclic pyrrole derivatives as MCP-1 inhibitors” (AstraZeneca UK Limited, priority 1998, dated 2002)
Like-named read-outs stand apart in the source and are kept apart here. Blank lines part the entries; values can stand above or below the compound they belong to.

Legend:
[1] = tested on: hMCP-1 mediated chemotaxis of THP-1 cells; test: hMCP-1 mediated chemotaxis assay; type: cell-based, human
Protocol: (§1) c) hMCP-1 Mediated Chemotaxis and RANTES Assay.
(§2) In vitro chemotaxis assays were performed using either the human monocytic cell line THP-1 or peripheral blood mixed monocytes obtained from fresh human blood purified by erythrocyte sedimentation followed by density gradient centrifugation over 9.6% (w/v) sodium metrizoate and 5.6% (w/v) polysaccharide, density 1.077 g/ml (Lymphoprep™ Nycomed). Cell migration through polycarbonate membranes was measured by enumerating those passing through either directly by Coulter counting or indirectly by use of a colourimetric viability assay measuring the cleavage of a tetrazolium salt by the mitochondrial respiratory chain (Scudiero D. A. et al. 1988, Cancer Res., 48, 4827-4833).
(§3) Chemoattractants were introduced into a 96-well microtiter plate which forms the lower well of a chemotaxis chamber fitted with a PVP-free 5 μm poresize polycarbonate adhesive framed filter membrane (NeuroProbe MB series, Cabin John, Md. 20818, USA) according to the manufacturer's instructions. The chemoattractant was diluted as appropriate in synthetic cell culture medium, RPMI 1640 (Gibco) or supplemented with 2 mM glutamine and 0.5% BSA, or alternatively with HBSS with Ca2+ and Mg2+ without Phenol Red (Gibco) plus 0.1% BSA. […] The plate was incubated at 37° C. for 3 h and the absorbance of the soluble formazan product was read on a microtitre plate reader at 450 nm. […]

MCP-1 receptor B (CCR2B) = biological target: T1, MCP-1 receptor B (CCR2B) (Homo sapiens, UniProt P41597); test: hMCP-1 receptor-binding assay
T1 construct: expressed in transfected cells; host or cells: CHO-K1 (clone 7, CHO-CCR2B), membrane fragments
T1 sequence (P41597 1-360 isoform P41597-2): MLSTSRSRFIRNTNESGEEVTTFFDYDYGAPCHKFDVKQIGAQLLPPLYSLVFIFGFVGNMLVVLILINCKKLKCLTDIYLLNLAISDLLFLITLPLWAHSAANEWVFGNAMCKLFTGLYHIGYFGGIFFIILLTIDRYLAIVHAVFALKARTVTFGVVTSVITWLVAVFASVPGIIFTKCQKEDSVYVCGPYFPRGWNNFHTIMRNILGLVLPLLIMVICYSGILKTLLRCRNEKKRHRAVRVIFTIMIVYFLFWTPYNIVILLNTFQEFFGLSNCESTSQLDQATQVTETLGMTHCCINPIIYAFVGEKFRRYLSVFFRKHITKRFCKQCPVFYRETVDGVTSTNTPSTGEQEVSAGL
Text: a) hMCP-1 Receptor-binding Assay i) Clonning and expression of hMCP-1receptor
The MCP-1 receptor B (CCR^2B) cDNA was cloned by PCR from THP-1 cell RNA using suitable oligonucleotide primers based on the published MCP-1 receptor sequences (Charo et al., 1994, Proc. Natl. Acad Sci. USA, 91, 2752). The resulting PCR products were cloned into vector PCR-II™ (InVitrogen, San Diego, Calif.). Error free CCR2B cDNA was subcloned as a Hind III-Not I fragment into the eukaryotic expression vector pCDNA3 (InVitrogen) to generate pCDNA3/CC-CKR2A and pCDNA3/CCR2B respectively.
Linearised pCDNA3/CCR2B DNA was transfected into CHO-K1 cells by calcium phosphate precipitation (Wigler et al., 1979, Cell, 16, 777). Transfected cells were selected by the addition of Geneticin Sulphate (G418, Gibco BRL) at 1 mg/ml, 24 hours after the cells had been transfected. Preparation of RNA and Northern blotting were carried out as described previously (Needham et al., 1995, Prot. Express. Purific., 6, 134). CHO-K1 clone 7 (CHO-CCR^2B) was identified as the highest MCP-1 receptor B expressor. […]
ii) Preparation of membrane fragments […]
^125I MCP-1 was prepared using Bolton and Hunter conjugation (Bolton et al., 1973, Biochem. J., 133, 529; Amersham International plc]. Equilibrium binding assays were carried out using the method of Ernst et al., 1994, J. Immunol., 152, 3541. Briefly, varying amounts of ^125I-labeled MCP-1 were added to […] of purified CHO-CCR2B cell membranes in […] of Binding Buffer. After 1 hour incubation at room temperature the binding reaction mixtures were filtered and washed 5 times through a plate washer (Packard Harvester Filtermate™ 196). Scintillation fluid (25 μl, Microscint™-20, a high efficiency liquid scintillation counting cocktail for aqueous samples) was added to each well and the plate was covered with plate sealer and counted (Packard Top Count™). […] Non-specific binding was determined by the inclusion of a 200-fold molar excess of unlabelled MCP-1 in the reaction. […]

[2] = tested on: RANTES induced chemotaxis of THP-1 cells; test: RANTES chemotaxis assay; type: cell-based; settings: Homo sapiens, 2 nM RANTES as chemoattractant
Protocol: as §1, §2, §3

THP-1 cells = test: MCP-1 mediated calcium flux in THP-1 cells; type: cell-based, human; settings: stimulation of THP-1 cells with hMCP-1, approximate, from dose response curves; read-out: EC50 for transient rise in [Ca2+]i
Protocol: b) MCP-1 Mediated Calcium Flux in THP-1 Cells
The human monocytic cell line THP-1 was grown in a synthetic cell culture medium RPMI 1640 supplemented with 10% foetal calf serum, 2 mM glutamine and Penicillin-Streptomycin (at 50 μg streptomycin/ml, Gibco BRL). THP-1 cells were washed in HBSS (lacking Ca^2+ and Mg^2+) +1 mg/ml BSA and resuspended in the same buffer at a density of 3×10^6 cells/ml. The cells were then loaded with […]-FURA-2/AM for 30 min at 37° C., washed twice in HBSS, and resuspended at 1×10^6 cells/ml. […] The cuvette was placed in a fluorescence spectrophotometer (Perkin Elmer, Norwalk, Conn.) and preincubated for 4 min at 37° C. with stirring. Fluorescence was recorded over 70 sec and cells were stimulated by addition of hMCP-1 to the cuvette after 10 sec. [Ca^2+]i was measured by excitation at 340 nm and 380 nm alternately and subsequent measurement of the intensity of the fluorescence emission at 510 nm.
where the Kd for FURA-2 Ca^2+ complex at 37° C. was taken to be […]. Rmax is the maximal fluorescence ratio determined after addition of […] lonomycin, Rmin is the minimal ratio determined by the subsequent addition of a Ca^2+ free solution containing 5 mM EGTA, and Sf2/Sb2 is the ratio of fluorescence values at 380 nm excitation determined at Rmin and Rmax, respectively. […]

- IC50 ([1]; Homo sapiens, 1 nM MCP-1 as chemoattractant, THP-1 cells): 1660 nM
Compound: O=C(O)c1cc2occc2n1S(=O)(=O)c1ccc(Cl)c(Cl)c1 [Compound No. 20, 4-(3,4-Dichlorobenzenesulfonyl)furo[3,2-b]pyrrole-5-carboxylic acid]

- IC50 (MCP-1 receptor B (CCR2B); competition with 100 pM labelled MCP-1, CHO-CCR2B cell membranes, read-out: IC50 in the hMCP-1 receptor binding assay): 8300 nM
Compound: Nc1cccc(-c2cc3c(cc(C(=O)O)n3Cc3ccc(Cl)c(Cl)c3)s2)c1 [Compound No. 13, 2-(3-Aminophenyl)-4-(3,4-dichlorobenzyl)thieno[3,2-b]pyrrole-5-carboxylic acid]

- IC50 [2]: 2660 nM
Compound: O=C(O)c1cc2sccc2n1Cc1ccc(Cl)c(Cl)c1 [Compound No. 8, 4-(3,4-Dichlorobenzyl)thieno[3,2-b]pyrrole-5-carboxylic acid]

- EC50 (THP-1 cells): ~2 nM
- IC50 (MCP-1 receptor B (CCR2B); membrane fragments from CHO-CCR2B cells, cold competition with 125I-labeled MCP-1, read-out: IC50 of MCP-1 binding to CCR2B): 0.11 nM
- Kd (MCP-1 receptor B (CCR2B); membrane fragments from CHO-CCR2B cells, equilibrium binding): 0.12 nM
Compound: MCP-1: Monocyte Chemoattractant Protein-1, a C—C chemokine; ligand of the CCR2 receptor
- concentration of maximal cell migration (biphasic response) ([1]; hMCP-1 as chemoattractant, concentration dependent cell migration): 0.5-1.0 nm
